Test results as given in patent US11583552B2, “Pharmaceutical formulation of arsenic trioxide” (priority 2021, dated 2023).
Where two headings read alike, the source gives them in different places.

Tests used:
[1] = cited from earlier work
[2] = Inhouse trials: Arsenic Trioxide in glycerin with sodium hydroxide; assay type: physicochemical; conditions: dissolved first in sodium hydroxide solution, then added to Glycerin

## Arsenic Trioxide
[1]; 0° C.
  solubility of Arsenic Trioxide in 100 g of water: 1.2 g
[1]; 25° C.
  solubility of Arsenic Trioxide in 100 g of water: 2.1 g
[1]; 75° C.
  solubility of Arsenic Trioxide in 100 g of water: 5.6 g
[1]
  solubility in alcohol, chloroform, and ether: insoluble
[2]
  concentrated solution of Arsenic Trioxide formed in presence of Glycerin: 157400 µg/mL
